Experiments:
[1] = biological target: T1, UnaG (CΔ0)-NLuc (NΔ1) fusion protein (wild-type chemiluminescent bilirubin indicator, linker GT), SEQ ID NO: 12 (Anguilla japonica, UniProt P0DM59); experiment: titration curve of the wild-type chemiluminescent bilirubin indicator with bilirubin (luminescence spectra, Hill fit); assay type: binding
T1 construct: made in house; host or cells: E. coli JM109 (DE3)
Description: The base sequence of this UnaG (CΔ0)-NLuc (NΔ1) fusion protein is represented by SEQ ID NO: 11, and the amino acid sequence of the same is represented by SEQ ID NO: 12.
The JM109 (DE3) strain transformed with the UnaG (CΔ0)-NLuc (NΔ1) fusion protein was cultured at 23° C. for 60 hours in 200 mL of LB medium containing 100 μg/mL Carvenisillin solution. After harvesting, the E. coli cells were disrupted by the French press method and purified by affinity chromatography using a Ni-NTA column (QIAGEN). Furthermore, in order to remove excess imidazole, a gel filtration column (PD-10, GE HealthCare) was used. The protein concentration was measured by the Bradford method.
500 μL of the purified UnaG (CΔ0)-NLuc (NΔ1) fusion protein was added to a 15-mL Falcon tube and frozen with liquid nitrogen. Thereafter, a powder of the protein solution was obtained by a lyophilizer. […]
0.01 nM, 0.05 nM, 0.1 nM, 0.5 nM, 1 nM, 2.5 nM, 5 nM, or 10 nM bilirubin (BR) solution and Coelenterazine-h at a final concentration of 5 μM were mixed with the UnaG(CΔ0)-NLuc(NΔ1) fusion protein at a final concentration of 5 nM, and luminescence spectra were measured using a multichannel spectroscope (PMA-12, manufactured by Hamamatsu Photonics K.K.) or a plate reader. […] Mean values of measured values obtained by three independent measurements were plotted, and then fitted as per the Hill equation. […]

[2] = biological target: UnaG protein (wild type; UniProtKB/Swiss-Prot: P0DM59.1, GenBank: AB763906.1); details: indirect bilirubin; Kumagai et al., Cell 2013, 153, 1602-1611; read-out: dissociation constant; cited from earlier work

T1 sequence (P0DM59 with tags, fused parts or gaps): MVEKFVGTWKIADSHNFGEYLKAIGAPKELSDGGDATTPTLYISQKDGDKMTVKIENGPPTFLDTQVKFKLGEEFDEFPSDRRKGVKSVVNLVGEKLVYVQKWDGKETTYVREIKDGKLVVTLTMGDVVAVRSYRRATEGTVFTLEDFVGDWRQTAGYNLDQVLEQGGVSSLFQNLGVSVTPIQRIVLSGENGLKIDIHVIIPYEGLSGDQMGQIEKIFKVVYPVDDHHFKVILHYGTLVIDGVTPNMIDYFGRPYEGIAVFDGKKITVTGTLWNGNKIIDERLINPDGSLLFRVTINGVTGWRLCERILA

Row | Compound | Kd ([1]; fusion protein 5 nM, bilirubin 0.01-10 nM, Coelenterazine-h 5 μM, mean of three independent measurements, fitted as per the Hill equation) [nM] | affinity for bilirubin (dissociation constant, Kd value), change on storage ([1]; lyophilized sample dissolved in water, stored at room temperature) | Kd [2] [nM]
1 | C=CC1=C(C)/C(=C/c2[nH]c(Cc3[nH]c(/C=C4\NC(=O)C(C)=C4C=C)c(C)c3CCC(=O)O)c(CCC(=O)O)c2C)NC1=O [bilirubin] | 3.05 | the affinity was slightly reduced | –
2 | C=CC1=C(C)/C(=C/c2[nH]c(Cc3[nH]c(/C=C4\NC(=O)C(C)=C4C=C)c(C)c3CCC(=O)O)c(CCC(=O)O)c2C)NC1=O [indirect bilirubin] | – | – | 0.098
